The values that follow come from ChEMBL document CHEMBL3853304, “Synthesis and biological screening for cytotoxic activity of N-substituted indolines and morpholines” (Eur J Med Chem, 2016).

Series [1] deals with U2OS. The series can be described thus: (§1) Cytotoxicity against human U2OS cells assessed as cell death at 100 uM after 24 hrs by trypan blue exclusion assay. It counts as functional.
Series [2] in a line: (§2) Cytotoxicity against human U2OS cells assessed as reduction in cell viability after 24 hrs by trypan blue exclusion assay. The class given is functional, cell-based.
Series [3] concerns U2OS. The series is described as §2. It counts as functional, cell-based.
Series [4] can be described thus: as §1. It counts as functional.
Series [5] deals with U2OS. The series is described as follows: Inhibition of cell migration in human U2OS cells at IC50 measured after 2 hrs by scratch migration assay. The class given is functional.
Series [6] relates to U2OS. The series can be described thus: Inhibition of cell migration in human U2OS cells at IC50 after 2 to 10 hrs by scratch migration assay. It counts as functional, cell-based.
The subject of series [7] is U2OS. The series is described as follows: Inhibition of cell migration in human U2OS cells at IC50 measured after 10 hrs by scratch migration assay. The class given is functional.
Series [8] has as its system U2OS. The series can be described thus: Inhibition of cell migration in human U2OS cells assessed as disturbed monolayer at IC50 measured after 10 hrs by light microscopic analysis. It counts as functional, cell-based.
In series [9] the test system is U2OS. The series is described as follows: Induction of apoptosis in human U2OS cells assessed as apoptotic cells at IC50 after 24 hrs by propidium iodide based epifluorescence microscopic analysis (reference value: 2 %). It counts as functional.
The test system of series [10] is U2OS. The series can be described thus: Inhibition of cell migration in human U2OS cells assessed as detached adherent cells at IC50 measured after 10 hrs by light microscopic analysis. The class given is functional, cell-based.
Series [11] deals with U2OS. The series is described as follows: Induction of apoptosis in human U2OS cells assessed as apoptotic cells at IC50 after 48 hrs by propidium iodide based epifluorescence microscopic analysis (reference value: 2 %). It counts as functional.
The test system of series [12] is U2OS. The series can be described thus: Induction of apoptosis in human U2OS cells assessed as necrotic cells at IC50 after 24 hrs by propidium iodide based epifluorescence microscopic analysis (reference value: 3 %). The class given is functional.
The test system of series [13] is U2OS. The series is described as follows: Induction of apoptosis in human U2OS cells assessed as necrotic cells at IC50 after 48 hrs by propidium iodide based epifluorescence microscopic analysis (reference value: 3 %). It counts as functional.
Series [14] relates to U2OS. The series is described as follows: Induction of apoptosis in human U2OS cells at IC50 after 24 hrs by Alexa fluor-Annexin V/DAPI staining-based epifluorescence microscopic analysis. The class given is functional.
Series [15] in a line: Induction of apoptosis in HEK293 cells at IC50 after 24 hrs by Alexa fluor-Annexin V/DAPI staining-based epifluorescence microscopic analysis. It counts as cell-based. The settings on record: human, hek293, 24 h.
Series [16] concerns U2OS. The series is described as follows: Induction of apoptosis in human U2OS cells assessed as increase in intracellular mitochondrial Ca2+ levels at IC50 by ratiometric pericam-mt based fluorescence microscopic analysis. It counts as functional, cell-based.
The nature of series [17]: Induction of apoptosis in HEK293 cells assessed as increase in intracellular mitochondrial Ca2+ levels at IC50 by ratiometric pericam-mt based fluorescence microscopic analysis. The class given is cell-based. Particulars: human.

The source made the active and inactive calls. No cut-off for these calls is given here. Some results are limits rather than exact numbers.

SODIUM ORTHOVANAD: in the series on U2OS [1], the Activity amounted to 30%.
In the case of `Cc1ccc(C(c2cc([N+](=O)[O-])ccc2O)N2CCc3ccccc32)cc1` (stereo unspecified), the IC50 (as a rule, the point on the concentration scale where inhibition reaches its midpoint) in [2] came to 74 µM. Besides, the Activity entry with U2OS [3] was “Dose-dependent effect”; in series [4] it was >90%; in the series on U2OS [9], 17%; in the series with U2OS [11], 23%; with U2OS [12], 12%; in the series on U2OS [13], 15%. The values for the Activity (with U2OS [14]; in series [15]; in series [17]) were 43%, 30% and “Toxic”, respectively. The “inhibition (INH)” value with U2OS [5] is given as 7%; with U2OS [7], 32%. Also, the inhibition entry with U2OS [6], with U2OS [8] and in the series on U2OS [10] was “Active” throughout. Besides, the result with U2OS [16] was Active.
In the case of `C(=C\C(c1ccccn1)N1CCOCC1)/c1ccccc1` (stereo unspecified), the Activity in [4] is reported as 20%.
Take `Cc1ccc(C(c2ccccc2O)N2CCc3ccccc32)cc1` (stereo unspecified): in series [4], the Activity came to 20%.
Still for that read-out and setting: next, `COc1ccc(C(c2ccccc2O)N2CCOCC2)cc1` (stereo unspecified): 20%; `Oc1ccccc1C(/C=C/c1ccccc1)N1CCOCC1` (stereo unspecified): 20%; `Oc1ccccc1C(c1ccc(Cl)cc1)N1CCOCC1` (stereo unspecified): 20%.
As for `Oc1ccccc1C(c1ccccc1)N1CCOCC1` (stereo unspecified), in series [4], the Activity worked out at 20%.
With `Oc1ccccc1C(c1ccccc1)N1CCc2ccccc21` (stereo unspecified), in the series on U2OS [3], the result was Active. Moreover, in series [4], the Activity is >90%.
Turning to `C=Cc1ccc(C(c2ccccc2O)N2CCOCC2)cc1` (stereo unspecified), the Activity in series [4] is 20%.
